ChEMBL document CHEMBL1145498, “A systematic interaction map of validated kinase inhibitors with Ser/Thr kinases” (Proc Natl Acad Sci U S A, 2007)

Columns and labels:
[1] = molecular target: 5'-AMP-activated protein kinase catalytic subunit alpha-2 (Homo sapiens) (UniProt P54646)
[2] = molecular target: Cyclin-dependent kinase 2 (Homo sapiens, UniProt P24941)
[3] = molecular target: Dual specificity protein kinase CLK3 (Homo sapiens) (UniProt P49761)
[4] = molecular target: Casein kinase I isoform gamma-1 (Homo sapiens) (UniProt Q9HCP0)
[5] = molecular target: Death-associated protein kinase 3 (Homo sapiens) (UniProt O43293)
[6] = molecular target: Serine/threonine-protein kinase 26 (Homo sapiens) (UniProt Q9P289)
[7] = molecular target: T1, Serine/threonine-protein kinase Nek2 (Homo sapiens) (UniProt P51955)
T1 sequence (whole entry): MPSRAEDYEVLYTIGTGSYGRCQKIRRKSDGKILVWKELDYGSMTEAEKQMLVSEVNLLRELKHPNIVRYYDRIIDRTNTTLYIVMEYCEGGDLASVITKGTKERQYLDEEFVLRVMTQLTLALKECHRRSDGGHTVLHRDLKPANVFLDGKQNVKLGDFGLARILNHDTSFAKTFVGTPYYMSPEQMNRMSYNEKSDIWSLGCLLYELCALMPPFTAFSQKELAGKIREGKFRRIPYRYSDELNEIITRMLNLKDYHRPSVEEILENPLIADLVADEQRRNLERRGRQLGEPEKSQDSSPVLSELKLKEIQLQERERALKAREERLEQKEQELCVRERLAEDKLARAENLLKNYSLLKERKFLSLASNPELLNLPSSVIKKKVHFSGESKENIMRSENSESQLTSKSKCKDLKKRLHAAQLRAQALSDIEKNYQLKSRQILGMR

[8] = molecular target: Serine/threonine-protein kinase PAK 6 (Homo sapiens) (UniProt Q9NQU5)
[9] = molecular target: T2, Serine/threonine-protein kinase PLK4 (Homo sapiens) (UniProt O00444)
T2 sequence (whole entry): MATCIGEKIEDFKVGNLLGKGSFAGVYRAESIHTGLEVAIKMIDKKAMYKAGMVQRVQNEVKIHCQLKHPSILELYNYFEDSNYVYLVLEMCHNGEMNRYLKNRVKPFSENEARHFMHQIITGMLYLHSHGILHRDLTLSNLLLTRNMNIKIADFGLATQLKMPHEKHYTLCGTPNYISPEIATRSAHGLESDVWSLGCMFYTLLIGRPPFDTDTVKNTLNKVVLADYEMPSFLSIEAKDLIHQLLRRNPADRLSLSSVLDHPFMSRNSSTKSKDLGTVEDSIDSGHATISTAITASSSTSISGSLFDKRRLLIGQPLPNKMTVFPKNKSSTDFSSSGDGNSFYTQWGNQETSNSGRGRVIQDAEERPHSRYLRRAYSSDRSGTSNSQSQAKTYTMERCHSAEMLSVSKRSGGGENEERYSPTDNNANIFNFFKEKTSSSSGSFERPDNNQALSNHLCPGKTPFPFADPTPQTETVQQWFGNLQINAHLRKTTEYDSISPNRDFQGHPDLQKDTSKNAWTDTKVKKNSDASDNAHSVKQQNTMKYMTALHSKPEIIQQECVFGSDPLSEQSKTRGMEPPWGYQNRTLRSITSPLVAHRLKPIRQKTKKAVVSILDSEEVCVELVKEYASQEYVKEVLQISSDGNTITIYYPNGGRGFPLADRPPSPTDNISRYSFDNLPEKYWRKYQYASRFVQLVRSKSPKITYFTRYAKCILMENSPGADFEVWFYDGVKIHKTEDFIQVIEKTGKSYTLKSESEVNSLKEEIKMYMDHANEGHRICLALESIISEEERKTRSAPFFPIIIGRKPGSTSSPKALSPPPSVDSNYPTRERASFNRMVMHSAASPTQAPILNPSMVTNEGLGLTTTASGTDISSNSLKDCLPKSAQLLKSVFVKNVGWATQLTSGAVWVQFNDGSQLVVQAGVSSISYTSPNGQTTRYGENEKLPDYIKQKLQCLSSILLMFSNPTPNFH

[10] = molecular target: cAMP-dependent protein kinase catalytic subunit alpha (Homo sapiens) (UniProt P17612)
[11] = molecular target: T3, Serine/threonine-protein kinase 17A (Homo sapiens) (UniProt Q9UEE5)
T3 sequence (whole entry): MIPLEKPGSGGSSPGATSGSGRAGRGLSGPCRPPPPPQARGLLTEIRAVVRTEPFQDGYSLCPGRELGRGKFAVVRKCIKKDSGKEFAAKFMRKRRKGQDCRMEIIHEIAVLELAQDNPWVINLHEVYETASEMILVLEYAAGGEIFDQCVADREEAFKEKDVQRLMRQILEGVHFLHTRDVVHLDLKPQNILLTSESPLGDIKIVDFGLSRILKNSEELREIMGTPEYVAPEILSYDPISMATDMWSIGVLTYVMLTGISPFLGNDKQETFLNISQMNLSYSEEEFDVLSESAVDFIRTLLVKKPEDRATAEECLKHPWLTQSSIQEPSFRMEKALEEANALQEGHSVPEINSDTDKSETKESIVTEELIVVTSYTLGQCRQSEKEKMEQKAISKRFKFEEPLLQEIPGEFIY

[12] = molecular target: Serine/threonine-protein kinase 38 (Homo sapiens) (UniProt Q15208)
[13] = molecular target: Serine/threonine-protein kinase 26 (Homo sapiens) (UniProt Q9P289); remark: listed apart in the source

Chain of Casein kinase I isoform gamma-1 (Homo sapiens) (Q9HCP0 whole entry, looked up, canonical isoform): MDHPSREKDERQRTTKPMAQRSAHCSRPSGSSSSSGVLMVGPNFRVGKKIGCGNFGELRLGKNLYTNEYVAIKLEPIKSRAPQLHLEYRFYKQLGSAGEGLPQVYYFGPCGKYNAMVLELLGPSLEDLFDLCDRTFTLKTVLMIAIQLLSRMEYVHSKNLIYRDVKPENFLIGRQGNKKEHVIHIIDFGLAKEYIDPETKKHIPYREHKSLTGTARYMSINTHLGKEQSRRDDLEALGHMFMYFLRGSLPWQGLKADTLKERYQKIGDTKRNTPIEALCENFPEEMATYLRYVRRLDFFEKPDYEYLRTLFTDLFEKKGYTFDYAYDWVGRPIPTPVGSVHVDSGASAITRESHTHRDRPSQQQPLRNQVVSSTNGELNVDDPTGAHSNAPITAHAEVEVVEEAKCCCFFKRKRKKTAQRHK
Chain of Serine/threonine-protein kinase PAK 6 (Homo sapiens) (Q9NQU5 whole entry, looked up): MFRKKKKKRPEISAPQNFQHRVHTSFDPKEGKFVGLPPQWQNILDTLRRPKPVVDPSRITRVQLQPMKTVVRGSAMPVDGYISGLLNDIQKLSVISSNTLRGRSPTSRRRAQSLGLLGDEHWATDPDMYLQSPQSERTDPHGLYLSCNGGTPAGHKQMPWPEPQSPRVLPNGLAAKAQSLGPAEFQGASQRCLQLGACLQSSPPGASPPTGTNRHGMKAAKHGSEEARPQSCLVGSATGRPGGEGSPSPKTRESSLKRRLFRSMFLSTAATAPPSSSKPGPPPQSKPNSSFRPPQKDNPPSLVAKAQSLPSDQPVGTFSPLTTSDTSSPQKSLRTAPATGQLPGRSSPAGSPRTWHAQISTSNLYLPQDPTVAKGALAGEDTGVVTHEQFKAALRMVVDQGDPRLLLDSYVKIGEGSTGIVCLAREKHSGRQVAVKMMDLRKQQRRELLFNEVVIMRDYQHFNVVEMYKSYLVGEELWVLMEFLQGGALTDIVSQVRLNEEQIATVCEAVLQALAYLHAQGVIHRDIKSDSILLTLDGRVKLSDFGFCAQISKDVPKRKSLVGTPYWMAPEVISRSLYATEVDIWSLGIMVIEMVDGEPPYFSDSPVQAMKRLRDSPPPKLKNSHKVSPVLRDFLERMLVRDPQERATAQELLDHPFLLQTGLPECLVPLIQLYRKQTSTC
Chain of Serine/threonine-protein kinase 38 (Homo sapiens) (Q15208 2-465 limits assumed): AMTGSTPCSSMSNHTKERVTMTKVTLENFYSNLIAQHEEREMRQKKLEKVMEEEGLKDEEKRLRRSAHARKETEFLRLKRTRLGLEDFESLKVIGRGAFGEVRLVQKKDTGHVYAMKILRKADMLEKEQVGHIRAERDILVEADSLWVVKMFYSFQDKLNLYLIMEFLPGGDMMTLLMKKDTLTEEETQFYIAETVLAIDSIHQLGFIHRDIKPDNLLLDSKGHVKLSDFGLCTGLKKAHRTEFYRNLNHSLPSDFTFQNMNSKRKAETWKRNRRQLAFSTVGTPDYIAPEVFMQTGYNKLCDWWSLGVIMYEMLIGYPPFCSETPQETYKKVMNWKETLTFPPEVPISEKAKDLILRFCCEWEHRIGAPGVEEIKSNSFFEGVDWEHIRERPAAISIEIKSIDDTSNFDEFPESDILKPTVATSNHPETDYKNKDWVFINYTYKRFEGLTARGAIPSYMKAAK
Chain of Serine/threonine-protein kinase 26 (Homo sapiens) (Q9P289 2-416 limits assumed): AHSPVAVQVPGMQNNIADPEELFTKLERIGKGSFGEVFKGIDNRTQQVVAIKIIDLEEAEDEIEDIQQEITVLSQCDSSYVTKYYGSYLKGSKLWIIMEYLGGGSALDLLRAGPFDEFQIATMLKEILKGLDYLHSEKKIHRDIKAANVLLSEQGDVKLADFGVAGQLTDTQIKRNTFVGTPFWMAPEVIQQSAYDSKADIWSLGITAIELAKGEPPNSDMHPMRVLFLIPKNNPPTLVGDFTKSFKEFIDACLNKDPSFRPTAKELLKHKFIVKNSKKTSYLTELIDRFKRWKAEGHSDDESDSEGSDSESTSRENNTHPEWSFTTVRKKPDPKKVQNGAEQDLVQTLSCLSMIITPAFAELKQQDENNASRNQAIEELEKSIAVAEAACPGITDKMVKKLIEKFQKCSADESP
Chain of 5'-AMP-activated protein kinase catalytic subunit alpha-2 (Homo sapiens) (P54646 whole entry, looked up): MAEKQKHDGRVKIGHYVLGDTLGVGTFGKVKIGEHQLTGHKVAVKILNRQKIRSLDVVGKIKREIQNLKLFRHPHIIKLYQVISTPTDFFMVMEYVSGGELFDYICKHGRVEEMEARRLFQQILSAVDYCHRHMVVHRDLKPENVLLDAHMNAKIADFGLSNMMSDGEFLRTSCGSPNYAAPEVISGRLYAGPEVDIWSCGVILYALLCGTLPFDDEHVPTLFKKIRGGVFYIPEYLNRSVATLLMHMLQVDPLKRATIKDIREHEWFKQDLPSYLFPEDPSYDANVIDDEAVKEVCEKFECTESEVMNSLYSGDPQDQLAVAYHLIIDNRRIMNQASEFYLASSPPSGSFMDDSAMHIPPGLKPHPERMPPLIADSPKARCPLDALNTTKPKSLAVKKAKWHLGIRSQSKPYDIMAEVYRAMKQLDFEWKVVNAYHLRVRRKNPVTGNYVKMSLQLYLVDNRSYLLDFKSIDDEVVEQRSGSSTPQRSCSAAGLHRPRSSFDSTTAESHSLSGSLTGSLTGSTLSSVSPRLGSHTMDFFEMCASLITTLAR
Chain of Death-associated protein kinase 3 (Homo sapiens) (O43293 whole entry, looked up): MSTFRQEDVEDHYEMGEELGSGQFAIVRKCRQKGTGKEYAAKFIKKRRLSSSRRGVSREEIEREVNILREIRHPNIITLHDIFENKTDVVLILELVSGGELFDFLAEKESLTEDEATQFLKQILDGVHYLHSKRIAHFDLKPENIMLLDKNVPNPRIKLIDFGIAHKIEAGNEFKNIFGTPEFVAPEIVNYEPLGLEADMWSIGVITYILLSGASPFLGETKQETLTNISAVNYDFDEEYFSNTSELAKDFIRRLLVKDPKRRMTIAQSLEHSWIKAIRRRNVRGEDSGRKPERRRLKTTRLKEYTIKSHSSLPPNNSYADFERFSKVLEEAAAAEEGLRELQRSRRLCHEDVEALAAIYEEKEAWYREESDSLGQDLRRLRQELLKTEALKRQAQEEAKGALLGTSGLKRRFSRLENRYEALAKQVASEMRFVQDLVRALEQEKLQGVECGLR
Chain of Dual specificity protein kinase CLK3 (Homo sapiens) (P49761 whole entry, looked up, canonical isoform): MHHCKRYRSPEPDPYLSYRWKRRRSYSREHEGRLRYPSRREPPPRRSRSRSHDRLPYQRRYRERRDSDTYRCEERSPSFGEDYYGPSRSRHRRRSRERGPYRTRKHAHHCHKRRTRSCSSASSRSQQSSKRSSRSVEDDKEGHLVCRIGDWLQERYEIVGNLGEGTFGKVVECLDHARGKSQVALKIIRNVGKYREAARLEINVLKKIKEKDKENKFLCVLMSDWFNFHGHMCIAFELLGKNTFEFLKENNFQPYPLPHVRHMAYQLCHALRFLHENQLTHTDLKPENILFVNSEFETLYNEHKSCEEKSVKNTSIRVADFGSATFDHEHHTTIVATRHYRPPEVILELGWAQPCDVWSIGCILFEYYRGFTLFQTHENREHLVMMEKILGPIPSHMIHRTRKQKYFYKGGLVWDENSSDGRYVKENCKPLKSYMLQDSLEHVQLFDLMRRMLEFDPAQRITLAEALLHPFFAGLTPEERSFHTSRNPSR

## COc1cc2c(cc1OC)-c1n[nH]c(Nc3cccc(F)c3)c1C2
[1]
  ΔTm: -0.3 °C
[2]
  ΔTm: 0 °C
[3]
  ΔTm: 0.4 °C
[4]
  ΔTm: 0.7 °C
[5]
  ΔTm: 0.2 °C
[6]
  ΔTm: 1.2 °C
[7]
  ΔTm: 0.6 °C
[8]
  ΔTm: 0.5 °C
[9]
  ΔTm: 1.5 °C
[10]
  ΔTm: 0.9 °C
[11]
  ΔTm: 1.3 °C
[12]
  ΔTm: 2.4 °C
[13]
  ΔTm: -0.2 °C

## Cc1ccc(NC2=CC(=O)c3sc(C)nc3C2=O)cc1
[1]
  ΔTm: 0 °C
[2]
  ΔTm: 0.2 °C
[3]
  ΔTm: -0.5 °C
[4]
  ΔTm: -0.6 °C
[5]
  ΔTm: -0.2 °C
[6]
  ΔTm: -0.5 °C
[7]
  ΔTm: -1.2 °C
[8]
  ΔTm: -2.1 °C
[9]
  ΔTm: -0.3 °C
[10]
  ΔTm: -0.4 °C
[11]
  ΔTm: -0.8 °C
[12]
  ΔTm: -1 °C
[13]
  ΔTm: -0.5 °C

## NCCNc1ncc(C(N)=O)c(Nc2cccc(C(F)(F)F)c2)n1
[1]
  ΔTm: 0.3 °C
[2]
  ΔTm: 0.1 °C
[3]
  ΔTm: 1 °C
[4]
  ΔTm: 1 °C
[5]
  ΔTm: 3.2 °C
[6]
  ΔTm: 1 °C
[7]
  ΔTm: 0.2 °C
[8]
  ΔTm: 0.9 °C
[9]
  ΔTm: 0.3 °C
[10]
  ΔTm: 2.3 °C
[11]
  ΔTm: 3.2 °C
[12]
  ΔTm: 2.5 °C
[13]
  ΔTm: 0.1 °C

## Cc1nc(N)sc1-c1ccnc(Nc2cccc([N+](=O)[O-])c2)n1
[1]
  ΔTm: 3 °C
[3]
  ΔTm: 4 °C
[4]
  ΔTm: 3.9 °C
[5]
  ΔTm: 8.7 °C
[6]
  ΔTm: 0.4 °C
[7]
  ΔTm: 2.2 °C
[8]
  ΔTm: -1.1 °C
[9]
  ΔTm: 2.3 °C
[10]
  ΔTm: 4.8 °C
[11]
  ΔTm: 1.9 °C
[12]
  ΔTm: 0.6 °C
[13]
  ΔTm: 0.4 °C

## CC(C)[C@H](CO)Nc1nc(Nc2cc(N)cc(Cl)c2)c2ncn(C(C)C)c2n1 [AMINOPURVALANOL]
[1]
  ΔTm: 0.3 °C
[3]
  ΔTm: 6.1 °C
[4]
  ΔTm: 2 °C
[5]
  ΔTm: 3.4 °C
[6]
  ΔTm: 4.3 °C
[7]
  ΔTm: 4.8 °C
[8]
  ΔTm: 0.1 °C
[9]
  ΔTm: 6.2 °C
[10]
  ΔTm: 6.5 °C
[11]
  ΔTm: 1.6 °C
[12]
  ΔTm: 0.6 °C

## COc1ccc(Cl)cc1NC(=O)Nc1cc(C)nc2ccccc12
[1]
  ΔTm: -0.4 °C
[2]
  ΔTm: -0.6 °C
[3]
  ΔTm: -0.1 °C
[4]
  ΔTm: 1.4 °C
[5]
  ΔTm: 2.3 °C
[6]
  ΔTm: 1.1 °C
[7]
  ΔTm: 0.3 °C
[8]
  ΔTm: 1.9 °C
[9]
  ΔTm: 3.4 °C
[10]
  ΔTm: 4.8 °C
[11]
  ΔTm: -0.1 °C
[12]
  ΔTm: 0.1 °C

## CCCCc1c(-c2ccc(O)cc2)[nH]c2nccnc12 [ALOISINE A]
[1]
  ΔTm: 2.2 °C
[2]
  ΔTm: 4.7 °C
[3]
  ΔTm: 1.5 °C
[4]
  ΔTm: 3 °C
[5]
  ΔTm: 2.3 °C
[6]
  ΔTm: 1.1 °C
[7]
  ΔTm: -0.4 °C
[8]
  ΔTm: 0.5 °C
[9]
  ΔTm: 3.4 °C
[10]
  ΔTm: 3.8 °C
[11]
  ΔTm: 2.9 °C
[12]
  ΔTm: 4 °C
[13]
  ΔTm: 4.1 °C

## CN1CCc2[nH]c(=S)c(C#N)c(-c3cccs3)c2C1
[1]
  ΔTm: 0.4 °C
[2]
  ΔTm: 0 °C
[3]
  ΔTm: -0.2 °C
[4]
  ΔTm: 0.8 °C
[5]
  ΔTm: 0.3 °C
[6]
  ΔTm: 1 °C
[7]
  ΔTm: 1 °C
[8]
  ΔTm: 0 °C
[9]
  ΔTm: 10.7 °C
[10]
  ΔTm: 14.1 °C
[11]
  ΔTm: 0.9 °C
[12]
  ΔTm: 0.5 °C

## O=C(Nc1cccc(Nc2cc(Nc3cccc(C(F)(F)F)c3)ncn2)c1)C1CC1
[1]
  ΔTm: -3.7 °C
[2]
  ΔTm: -1.5 °C
[3]
  ΔTm: 1.5 °C
[4]
  ΔTm: 1 °C
[5]
  ΔTm: 2.1 °C
[6]
  ΔTm: 1.7 °C
[7]
  ΔTm: 2 °C
[8]
  ΔTm: -0.3 °C
[9]
  ΔTm: 2 °C
[10]
  ΔTm: 1.1 °C
[11]
  ΔTm: 1.5 °C
[12]
  ΔTm: 1.5 °C
[13]
  ΔTm: 0.8 °C

## O=C(Nc1cccc(Nc2nccc(Nc3cccc(C(F)(F)F)c3)n2)c1)C1CC1 [ANILINOPYRIMIDINE1]
[1]
  ΔTm: 1.5 °C
[2]
  ΔTm: 0 °C
[3]
  ΔTm: 0.6 °C
[4]
  ΔTm: 0.7 °C
[5]
  ΔTm: 6.5 °C
[6]
  ΔTm: 1.5 °C
[7]
  ΔTm: 1.3 °C
[8]
  ΔTm: -0.9 °C
[9]
  ΔTm: 2.2 °C
[10]
  ΔTm: 1.3 °C
[11]
  ΔTm: 1.5 °C
[12]
  ΔTm: 0.4 °C
[13]
  ΔTm: 0.7 °C

## CC(C)c1nn(-c2c(Cl)cccc2Cl)c2nc(Cc3ccc(OCCO)cc3)[nH]c(=O)c12
[1]
  ΔTm: 1 °C
[2]
  ΔTm: 10.6 °C
[3]
  ΔTm: 0.6 °C
[4]
  ΔTm: 0.1 °C
[5]
  ΔTm: 6.2 °C
[6]
  ΔTm: -0.3 °C
[7]
  ΔTm: 1.5 °C
[8]
  ΔTm: -0.1 °C
[9]
  ΔTm: 2.9 °C
[10]
  ΔTm: -0.1 °C
[11]
  ΔTm: 0.1 °C
[12]
  ΔTm: 0.3 °C
[13]
  ΔTm: 0.5 °C

## CN(c1cccnc1)c1cc2c(Nc3ccc(F)c(Cl)c3)c(C#N)cnc2cn1
[1]
  ΔTm: 4.8 °C
[2]
  ΔTm: -0.5 °C
[3]
  ΔTm: 1.2 °C
[4]
  ΔTm: 1.4 °C
[5]
  ΔTm: 0.7 °C
[6]
  ΔTm: 1.3 °C
[7]
  ΔTm: 0.7 °C
[8]
  ΔTm: -0.2 °C
[9]
  ΔTm: 8.2 °C
[10]
  ΔTm: 2.2 °C
[11]
  ΔTm: 4.7 °C
[12]
  ΔTm: 0.3 °C
[13]
  ΔTm: 0.7 °C

## Cc1[nH]c(/C=C2\C(=O)Nc3ccc(S(=O)(=O)N(C)c4cccc(Cl)c4)cc32)c(C)c1C(=O)N1CCN(C)CC1
[1]
  ΔTm: 4 °C
[2]
  ΔTm: -0.4 °C
[3]
  ΔTm: 3.7 °C
[4]
  ΔTm: 0.6 °C
[5]
  ΔTm: 2.6 °C
[6]
  ΔTm: 5 °C
[7]
  ΔTm: 0.1 °C
[8]
  ΔTm: 2 °C
[9]
  ΔTm: 0.8 °C
[10]
  ΔTm: 3.1 °C
[11]
  ΔTm: 3.3 °C
[12]
  ΔTm: 4.2 °C
[13]
  ΔTm: -0.2 °C

## COc1cc2ncnc(Nc3ccc(NC(=O)c4ccccc4)cc3)c2cc1OC [ANILINOQUINAZOLINE1]
[1]
  ΔTm: 0.8 °C
[2]
  ΔTm: -0.5 °C
[3]
  ΔTm: 0.4 °C
[4]
  ΔTm: 1.1 °C
[5]
  ΔTm: 0.5 °C
[6]
  ΔTm: 1.8 °C
[7]
  ΔTm: 0.3 °C
[8]
  ΔTm: 0.6 °C
[9]
  ΔTm: 0.5 °C
[10]
  ΔTm: 1 °C
[11]
  ΔTm: 2.1 °C
[12]
  ΔTm: 0.9 °C
[13]
  ΔTm: 0 °C

## CCCNC(=O)Nc1ccc(Oc2ncnc3cc(OC)c(OC)cc23)cc1Cl [KRN-633]
[1]
  ΔTm: 2.1 °C
[2]
  ΔTm: -0.4 °C
[3]
  ΔTm: 0.1 °C
[4]
  ΔTm: 0.8 °C
[5]
  ΔTm: 1.3 °C
[6]
  ΔTm: 1.2 °C
[7]
  ΔTm: -0.3 °C
[8]
  ΔTm: 0.8 °C
[9]
  ΔTm: 1 °C
[10]
  ΔTm: 1 °C
[11]
  ΔTm: 2.7 °C
[12]
  ΔTm: 1.6 °C
[13]
  ΔTm: -0.1 °C
